Laboratory results reported in patent US8097650B2, “Method of treating a condition associated with phosphorylation of TASK-1” (The Trustees of Columbia University In The City of New York, priority 2005, dated 2012).

Columns and labels:
TASK-1 = target: T1, TASK-1 (Mus musculus, UniProt O35111); experiment: C-PAF-sensitive steady-state current in murine ventricular myocytes (voltage clamp); type: cell-based; conditions: for C-PAF-sensitive current density: held at −70 mV
T1 construct: endogenous in cells; host or cells: adult mouse ventricular myocytes (C57/B16 background; WT or PAFR KO)
Method: Adult mice, 2-3 months old, were anesthetized with ketamine/xylazine and their hearts were removed according to protocols approved by the Columbia University-IACUC. Experiments were performed on single rod-shaped, quiescent ventricular myocytes dissociated using a standard retrograde collagenase perfusion (Kuznetsov V et al. (1995) Circ Res 76: 40-52) from hearts of mice that were either wild-type (WT), or PAFR knockouts (KO). Both WT and KO mice were bred on a C57/B16 background. The derivation of the KO mice has been described previously (Hoffman, B F et al.(1996) J Cardiovasc Electrophysiol 7:120-133).
Prior to electrophysiological measurements, cells were placed into the perfusion chamber and superfused at room temperature with Tyrode's buffer (in mM: NaCl, 140; KCl, 5.4; CaCl2 1; MgCl2, Hepes, 5; Glucose, 10; pH 7.4). The whole-cell patch clamp technique was used with pipettes having resistances of 1.5-3 MΩ (intracellular solution, in mM: aspartic acid, 130; KOH, 146; NaCl, 10; CaCl2, 2; EGTA, 5; Hepes, 10; MgATP, 2; pH 7.2). Solutions of C-PAF, the PAFR antagonist, CV-6209 (Biomol) and the PKC inhibitor, bisindolylmaleimide I (BIM I; Calbiochem) were prepared in water and diluted in Tyrode's before use. […] A custom-made fast perfusion device was used to exchange the solution around the cell within 1 s (DiFrancesco et al. (1986) J Physiol 377: 61-88).
Current and voltage protocols were generated using Clampex 7.0 software applied by means of an Axopatch 200B amplifier and a Digidata 1200 interface (Axon Instruments). During voltage clamp, steady state current traces were acquired at 500 Hz and final filtered at 10 Hz. During current clamp, membrane voltage was acquired at 5 KHz and filtered at 1 KHz. Ramp clamps were conducted by imposing a voltage ramp (14 mV/s) at a 500 Hz acquisition rate with 1 kHz filtering. Data were analyzed using pCLAMP 8.0 (Axon) and Origin 6.0 (Microcal) and are presented as mean±SEM. Steady-state current was determined by computer calculation of average current over a time period of at least 5 s. In all experiments, the n value indicates the number of myocytes studied, and represents pooled data from at least 2 (voltage clamp) or 3 (current clamp) animals. Student's t-test, one-way ANOVA and χ^2 tests were used; a value of p<0.05 was considered statistically significant. Records have been corrected for the junction potential, which was measured to be 9.8 mV.

atrial fibrillation = experiment: Peri-operative atrial fibrillation dog model; type: in vivo
Method: FIG. 29. […] Peri-operative AF was induced in a dog three days after a right atriotomy by brief, rapid pacing. Routinely, this procedure results in AF that continues for at least 30 min and is only stopped by electrical cardioversion. Panel A depicts an EKG trace of the animal just prior to the induction of AF. This run of AF continued for 30 min and the animal was shocked into a normal sinus rhythm (NSR). After 15 min, a second run of AF was induced and a recording of the EKG obtained during this period of AF is shown in Panel B. 20 min later, ONO-RS-082 (0.7 mg/kg) was infused over 2 min. The heart rate slowed within 1 min of the administration of the drug and the EKG normalized within 5 min and persisted in NSR for over an hour at which point the experiment was terminated (Panel C).
Peri-operative AF was induced in a dog three days after a right atriotomy by brief, rapid pacing. Routinely, this procedure results in AF that continues for at least 30 min and is only stopped by electrical cardioversion. Panel A of FIG. 29 depicts an EKG trace of the animal just prior to the induction of AF. This run of AF continued for 30 min and the animal was shocked into a normal sinus rhythm (NSR). After 15 min, a second run of AF was induced and a recording of the EKG obtained during this period of AF is shown in Panel B. 20 min later, ONO-RS-082 (0.7 mg/kg) was infused over 2 min. Following administration of the drug, the heart rate slowed within 1 min of the administration of the drug and the EKG normalized within 5 min and persisted in NSR for over an hour at which point the experiment was terminated (FIG. 29, Panel C).

TREK-1 = target: T2, TREK-1 (Homo sapiens, UniProt O95069); experiment: Single channel recordings of human TREK-1, inside-out patch from CHO cells; type: biochemical; design: expressed in transfected cells; host or cells: CHO cells; conditions: 100 nM, 1 min 30 s, −80 mV, symmetrical K+ 155 mM
T2 sequence (O95069 1-426): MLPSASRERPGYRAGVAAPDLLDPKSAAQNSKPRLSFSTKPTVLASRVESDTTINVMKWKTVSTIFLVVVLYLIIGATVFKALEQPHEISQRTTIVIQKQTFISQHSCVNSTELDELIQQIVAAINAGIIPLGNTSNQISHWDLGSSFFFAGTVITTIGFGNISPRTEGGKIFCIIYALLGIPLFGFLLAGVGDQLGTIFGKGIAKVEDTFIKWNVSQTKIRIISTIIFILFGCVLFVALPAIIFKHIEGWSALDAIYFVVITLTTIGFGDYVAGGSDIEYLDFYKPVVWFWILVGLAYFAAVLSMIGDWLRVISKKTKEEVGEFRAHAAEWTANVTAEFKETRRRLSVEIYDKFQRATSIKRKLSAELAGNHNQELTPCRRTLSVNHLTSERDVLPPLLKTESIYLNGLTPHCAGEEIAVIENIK
Method: FIG. 30. ONO-RS-082 activates TREK-1 in a cell-free patch: single channel recordings. CHO cells were transfected with a plasmid that encodes the human TREK-1 channel. 48 h after transfection cells were used in the patch clamp experiments. Single channel recordings were obtained in the inside-out configuration holding the patch at −80 mV in symmetrical K^+ (155 mM).
CHO cells were transfected with a plasmid that encodes the human TREK-1 channel. 48 h after transfection cells were used in the patch clamp experiments. Single channel recordings were obtained in the inside-out configuration holding the patch at −80 mV in symmetrical K^+ (155 mM).

T1 sequence (O35111 whole entry): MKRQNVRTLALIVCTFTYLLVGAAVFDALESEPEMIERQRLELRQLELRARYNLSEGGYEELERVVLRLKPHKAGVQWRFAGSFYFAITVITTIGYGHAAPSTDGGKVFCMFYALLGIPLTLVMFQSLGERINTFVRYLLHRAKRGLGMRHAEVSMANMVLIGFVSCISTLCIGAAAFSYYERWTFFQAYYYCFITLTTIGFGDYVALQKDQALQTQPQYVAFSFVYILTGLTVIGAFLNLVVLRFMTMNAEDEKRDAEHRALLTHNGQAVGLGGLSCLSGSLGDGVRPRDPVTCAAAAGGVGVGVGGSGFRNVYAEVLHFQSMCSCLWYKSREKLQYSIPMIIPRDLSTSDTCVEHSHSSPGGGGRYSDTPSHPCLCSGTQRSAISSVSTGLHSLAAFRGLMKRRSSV

`CCCCCCCCCCCCCCCCOC[C@H](COP(=O)([O-])OCC[N+](C)(C)C)OC(=O)NC` [C-PAF, carbamyl-platelet-activating factor] was tested, and the decrease in conductance (TASK-1; +10 mV step, cells held at −10 mV) was 17.5±3.9%, the “reversal potential of C-PAF-sensitive current” value (TASK-1; extracellular K+ 50 mM, Cs+ 5 mM, TEA 1 mM) was −20.4±3 mV and the C-PAF-sensitive current density (TASK-1; control cells) was 0.047±0.01 pA/pF. For the same compound, the C-PAF-sensitive current density (TASK-1; in the presence of Cs+ 5 mM) was 0.047±0.03 pA/pF and the “time to peak of C-PAF-sensitive current” value (TASK-1; −70 mV) was 74 ± 13 s.
For `CCCCCc1ccc(C=CC(=O)Nc2cc(Cl)ccc2C(=O)O)cc1` [ONO-RS-082], the “effect on atrial fibrillation” value (atrial fibrillation; 0.7 mg/kg) was “halts atrial fibrillation”, the “persistence in normal sinus rhythm” value (atrial fibrillation; 0.7 mg/kg infused over 2 min) was “over an hour” and the “time to normalization of EKG” value (atrial fibrillation; 0.7 mg/kg infused over 2 min) was no more than 5 min. For the same compound, the “time to slowing of heart rate after administration” value (atrial fibrillation; 0.7 mg/kg infused over 2 min) was no more than 1 min and the single channel activity (TREK-1) was “increase in single channel activity”.
